Values after ≈ are worked out from the molar mass of the structure shown. “Also recorded” adds a separate entry of the source. Like-named read-outs stand apart in the source and are kept apart here. Bridge positions count the residues as written; N and C are the ends. Peptide text beside a SMILES is read from it.
What was measured:
[1] = test system: Staphylococcus aureus ATCC 43300; assay: microbe, parasite or virus in culture; assay type: cell-based
Procedure: (§1) The experimental operation of the expression of the Plectasin variant in P. pastoris in well plates, shaking flasks, and 5 L level fermentation was performed as referenced in previous studies. Candidates were identified through three different levels of screening. Firstly, a large number of transformants were screened through well plates to induce expression and determined by the inhibition zone assay (against S. aureus ATCC 43300). Secondly, the transformants with obvious inhibition zones were sequenced to obtain protein sequence information, then induced expression at the shake level. The supernatant was collected and purified to obtain the target protein; the anti-Staphylococcus aureus activity of the protein was detected by a MIC assay. Finally, the codons of candidate sequences were optimized, the expression vector was reconstructed, the optimal transformers were obtained, and the high-density cultivation was performed in a 5 L fermenter. The final agent was determined by high protein yield and good activity (Figure 2).
(§2) The MIC value of PN7 against bacteria was determined by the microtiter broth dilution method. Briefly, bacteria grown to the exponential phase were diluted into MHB; subsequently, 90 μL of bacterial suspension (10^5 CFUs/mL) was mixed with 10 μL of different concentrations of PN7 in a sterilized 96-well microtiter plate (Nunc). MIC values were recorded after incubation for 16–18 h at 37 °C based on the lowest concentrations of peptides in which no visible bacterial growth was observed.

[2] = test system: S. aureus ATCC 25923; assay type: cell-based, Staphylococcus aureus
Procedure: as §1, §2

[3] = test system: S. aureus CVCC 546; assay type: cell-based, Staphylococcus aureus
Procedure: as §1, §2

[4] = test system: P. aeruginosa CICC 21630; assay: MIC, microtiter broth dilution; assay type: cell-based, Pseudomonas aeruginosa; settings: MHB, 10^5 CFUs/mL, 16–18 h at 37 °C
Procedure: as §2

[5] = test system: human keratinocyte HaCaT; assay: Cytotoxicity, MTT assay; assay type: cell-based; settings: HaCaT cells, at 128 mg/mL (so in the source)
Procedure: (§3) The cytotoxicity of PN7 was evaluated by MTT (Beyotime, Shanghai, China) assay.

[6] = test system: mouse macrophages RAW264.7; assay: Cytotoxicity, MTT assay; assay type: cell-based
Procedure: as §3

[7] = pH stability, MIC read-out; assay type: physicochemical; settings: pH from 2 to 10, buffers, 37 °C, 4 h, MIC read-out after dilution, triplicate
Procedure: PN7 dissolved in physiological saline solution was prepared into mother liquor with a concentration of 1280 μg/mL and incubated at different temperatures for 1 h. PN7 was dissolved in different pH buffers at 37 °C for 4 h. After double gradient dilution, MIC assays were used to detect the change in antibacterial activity.

[8] = test system: S. aureus ATCC 43300; assay: Salt stability, MIC read-out; assay type: cell-based, Staphylococcus aureus
Procedure: The influence of ions on PN7 activity was determined in two ways.
The first method of operation: PN7 was prepared into 1280 μg/mL mother liquor supplemented with 50, 100, 200, 300, and 500 mM NaCl (or KCl, MgCl2, CaCl2), then was diluted twice gradient by ddH2O. Then, 10 μL was added into 90 μL bacterial solution and cultured for 16–18 h to determine the MIC.
The second method of operation: 10 μL peptide solution and 10 μL NaCl (or KCl, MgCl2, CaCl2) solution with different concentrations were added to 80 μL bacterial solution. The final concentration of ions in the whole system was 50, 100, 150, 200, and 250 mM. The MIC against S. aureus ATCC 43300 was determined.

[9] = Stability in simulated gastric fluid, MIC read-out; assay type: in vitro ADME
Procedure: (§4) The stability of peptide PN7 in SGF, SIF, and 25% or 50% mouse serum was carried out as previously described. A final concentration of 1280 μg/mL PN7 was prepared and incubated at 37 °C and then diluted twice. The MIC was determined.

[10] = Serum stability, MIC read-out; assay type: in vitro ADME; settings: 25% or 50% mouse serum, 1280 μg/mL PN7, 37 °C, triplicate
Procedure: as §4

[11] = test system: S. aureus ATCC 43300; assay: Membrane permeability, PI staining by FACS; assay type: cell-based, Staphylococcus aureus; settings: 2× MIC, 10^8 CFU/mL, 37 °C
Procedure: Figure 8 In vitro antimicrobial analysis of PN7. (A): Time-kill curve of PN7, Plectasin, and vancomycin against S. aureus ATCC. All experiments were performed in triplicate. (B): The PAE of 1×, 2× and 4× MIC of PN7 and vancomycin against S. aureus ATCC 43300 (the MIC values of PN7 and vancomycin against S. aureus ATCC 43300 were 8 μg/mL and 1μg/mL, respectively). All experiments were performed in triplicate. (C): The morphological influence of PN7 on S. aureus ATCC 43300 was observed by SEM. (D,E): The effects of PN7 (D) and Plectasin (E)) on membrane permeability were analyzed by FACS. The logarithmic phase S. aureus ATCC 43300 cells (10^8 CFU/mL) were incubated with or without 2× MIC peptide solutions at 37 °C at different times. All experiments were performed in triplicate. Ple stands for the Plectasin treatment group, Van stands for the vancomycin treatment group, and CK stands for the untreated group. TEXT PRINTED IN THE PICTURE: (D) PN7: 34.4% (2×; 90min); 31.2% (2×; 75min); 30.4% (2×; 60min); 19.2% (2×; 45min); 16.7% (2×; 30min); 1.94% (2×; 15min) | (E) Ple: 32.0% (2×; 90min); 27.4% (2×; 75min); 25.2% (2×; 60min); 12.8% (2×; 45min); 12.0% (2×; 30min); 2.11% (2×; 15min) DOUBTS OF THE COPYIST ABOUT THIS PICTURE: Panels D and E: the picture prints no measure for the percentages, only labels such as "2×PN7-90min: 34.4%" / Panels D and E: "CK: 0.54%" is the untreated control, not a substance, and was left out
The fluorescent dye propidium iodide (PI; Solarbio, Beijing, China) was used to detect the effect of PN7 on the membrane permeability of Staphylococcus aureus. The test method refers to the descriptions in previous studies.

[12] = microtiter broth dilution, MHB, 10^5 CFUs/mL, 16–18 h at 37 °C

`CC[C@H](C)[C@@H]1NC(=O)[C@H](CO)NC(=O)[C@H](CCCCN)NC(=O)[C@@H]2CSSC[C@@H](C(=O)N[C@@H](Cc3ccc(O)cc3)C(=O)O)NC(=O)[C@H](CCCCN)NC(=O)[C@@H]3CSSC[C@H](NC(=O)[C@H](CCCNC(=N)N)NC(=O)CNC(=O)[C@H](CC(=O)O)NC(=O)[C@H](CC(=O)O)NC(=O)[C@H](CCC(=O)O)NC(=O)[C@H](Cc4ccc(O)cc4)NC(=O)[C@H](Cc4c[nH]c5ccccc45)NC(=O)[C@@H]4CCCN4C(=O)CNC(=O)[C@H](CC(N)=O)NC(=O)[C@@H](NC(=O)CNC(=O)[C@H](Cc4ccccc4)NC(=O)CN)CSSC[C@H](NC(=O)[C@H](Cc4ccc(O)cc4)NC(=O)CNC(=O)CNC(=O)[C@H](CCCCN)NC(=O)[C@H](Cc4ccc(O)cc4)NC(=O)CNC(=O)[C@H](CCCCN)NC1=O)C(=O)N[C@@H](C)C(=O)N[C@@H](CCCCN)C(=O)NCC(=O)NCC(=O)N[C@@H](Cc1ccccc1)C(=O)N[C@@H](C(C)C)C(=O)N3)C(=O)N[C@@H](Cc1c[nH]cn1)C(=O)N[C@@H](CC(N)=O)C(=O)N[C@@H](Cc1c[nH]cn1)C(=O)N2` [PN7] (H-GFGCNGPWYEDDGRCHNHCKSIKGYKGGYCAKGGFVCKCY-OH; disulfide 4-30, 15-37, 19-39 (inferred); N-terminus and C-terminus assumed) gave an MIC ([1]; S. aureus 43300, purified protein induced by shaking flasks) of 4 µg/mL (≈ 0.908 µM), an MIC [1, 12] of 8 µg/mL (≈ 1.82 µM) and an MIC ([2]; S. aureus 25923, purified protein induced by shaking flasks) of 16 µg/mL (≈ 3.63 µM). It also gave an MIC [2, 12] of 16 µg/mL (≈ 3.63 µM), an MIC ([3]; S. aureus 546, purified protein induced by shaking flasks) of 4 µg/mL (≈ 0.908 µM) and an MIC [3, 12] of 1 µg/mL (≈ 0.227 µM). It also gave an MIC [4] of over 128 µg/mL, a cell viability [5] of 85.36% and a survival ([6]; RAW264.7 and HaCaT cells (Figure 6B,C), 128 μg/mL) of over 85%. For the same molecule, the cell viability ([6]; RAW264.7 cells, MTT, at 128 mg/mL (so in the source)) was 92.77%, the “pH stability (antibacterial activity)” value [7] was “stable” and the “influence of monovalent cations (Na+ and K+) on activity” value ([8]; NaCl or KCl, MIC against S. aureus ATCC 43300) was “no influence”. The “MIC value after incubation with different ions” value ([8]; mother liquor with 50–500 mM salt, then diluted with ddH2O) was “did not change”, the “activity after incubation with simulated gastric juice (SGF)” value ([9]; 1280 μg/mL PN7, 37 °C, then two-fold dilution, triplicate) was “conserved full activity” and the resistance to pepsin ([9]; Figure 7E) was “resistant to pepsin”. The serum stability [10] was “strong resistance to the serum effect; also recorded: stable in serum”, the “PI-staining percentage of cells” value ([11]; 30 min) was 16.7% and the “PI-staining percentage of cells” value ([11]; 60 min) was 30.4%. For the same molecule, the “PI-staining percentage of cells” value ([11]; 90 min) was 34.4%.
